Marks after values point to notes of the source that are not given here.
How the values were obtained:
[1] = test system: fecal samples taken from breast-fed infants (BF) (intestinal flora); experiment: Anaerobic fermentation of HMOs with fecal inocula from breast-fed infants; GABA and agmatine in supernatant by GC/MS and LC/MS/MS; format: cell-based, human; conditions: for GABA, ratio HMO/blank / agmatine, ratio HMO/blank: breast fed infants, fermentation 37° C.; for GABA and agmatine relative to a blank (in words): breast-fed infants (BF) fecal fermentation cultures
Method: (§1) Fecal samples from eight human babies, one group of four breast-fed and the other group of four formula-fed, were used as inocula for anaerobic fermentation (37° C.) of lacto-N-neotetraose (LNnT) and 6′-sialyllactose. Supernatants from the fermentation cultures were sampled at 0 hr, 3 hr, and 6 hr. A culture without addition of HMOs served as a control. A sample of the fermentation medium (blank), which constituted approximately 90% of the starting culture volume, was also analyzed.
(§2) Samples were extracted and split into equal parts for analysis on GC/MS and LC/MS/MS platforms. GABA and agmatine ions were identified in chromatograms, and peak area was integrated for quantitative analysis.

[2] = test system: fecal samples taken from formula-fed infants (FF) (intestinal flora); experiment: Anaerobic fermentation of HMOs with fecal inocula from formula-fed infants; GABA and agmatine in supernatant by GC/MS and LC/MS/MS; format: cell-based, human; conditions: for GABA, ratio HMO/blank / agmatine, ratio HMO/blank: formula fed infants, fermentation 37° C.; for GABA and agmatine relative to a blank (in words): formula-fed infants (FF) fecal fermentation cultures
Method: as §1, §2

Row | SMILES | GABA, ratio HMO/blank ([1]; 0 h) | agmatine, ratio HMO/blank ([1]; 0 h) | GABA, ratio HMO/blank ([1]; 3 h) | agmatine, ratio HMO/blank ([1]; 3 h) | GABA, ratio HMO/blank ([1]; 6 h) | agmatine, ratio HMO/blank ([1]; 6 h) | GABA and agmatine relative to a blank (in words) [1] | GABA, ratio HMO/blank ([2]; 0 h) | agmatine, ratio HMO/blank ([2]; 0 h) | GABA, ratio HMO/blank ([2]; 3 h) | agmatine, ratio HMO/blank ([2]; 3 h) | GABA, ratio HMO/blank ([2]; 6 h) | agmatine, ratio HMO/blank ([2]; 6 h) | GABA and agmatine relative to a blank (in words) [2]
1 | CC(=O)N[C@H]1[C@H]([C@H](O)[C@H](O)CO)O[C@@](OC[C@H]2O[C@@H](O[C@H]3[C@H](O)[C@@H](O)[C@H](O)O[C@@H]3CO)[C@H](O)[C@@H](O)[C@H]2O)(C(=O)O)C[C@@H]1O [6′SL, 6′-sialyllactose] | 1.22 | 8.23^a | 3.53 | 10.51 | 5.32 | 3.43 | dramatic increases | 0.6 | 1.4 | 4.31 | 11.99 | 16.99^a | 3.76 | dramatic increases
2 | CC(=O)N[C@H]1[C@H](O[C@H]2[C@@H](O)[C@@H](CO)O[C@@H](O[C@H]3[C@H](O)[C@@H](O)C(O)O[C@@H]3CO)[C@@H]2O)O[C@H](CO)[C@@H](O[C@@H]2O[C@H](CO)[C@H](O)[C@H](O)[C@H]2O)[C@@H]1O (mixture of isomers) [LNnT, lacto-N-neotetraose] | 3.66 | 9.52^a | 14.78 | 34.4 | 17.46^a | 1.59 | dramatic increases | 3.25 | 2.12 | 27.83^a | 61.77^a | 33.42^a | 75.02^a | dramatic increases

From patent US10779550B2, “Human milk oligosaccharides to ameliorate symptoms of stress” (ABBOTT LABORATORIES, priority 2012, dated 2020)
